Literature values as cited in US20160074480A1, “INNOVATIVE METHODS OF TREATMENTING TUBERCULOSIS” (priority 2015, published 2016).

System: TB bacteria
Conditions: laboratory dishes, including strains resistant to available anti-tuberculosis drug; cited from earlier work

O=C1O[C@H]([C@@H](O)CO)C(O)=C1O [Vitamin C, L-ascorbic acid]
killing of TB bacteria: killed TB bacteria
